This passage reports Activity results from ChEMBL document CHEMBL5523743, “Identification of Psychoplastogenic Tropanes Lacking Muscarinic Activity” (J Med Chem, 2024).

For data set [1], the system named is Neuron. The experiment in a line: Neuroplasticity effect in Wistar rat brain cortical neuron assessed as increase in neurite outgrowth at 0.25 to 10 uM after 72 hrs. The format is functional, cell-based. As to conditions: dose 0.25-10 µM.
Data set [2] relates to Neuron. Kind of data set: Cytotoxicity against Wistar rat brain cortical neurons assessed as neurite restriction. The format is toxicity, cell-based. The settings on record: dose 0.25-10 µM.

Molecules are shown by their SMILES. Activity calls are given as the source filed them. The rule behind the calls is not given here.

For the compound `CN1[C@@H]2CCC[C@H]1[C@H]1[C@@H]2N1c1cccc2[nH]ccc12`, in data set [1], the result was inactive. Besides, the Activity entry in data set [2] is on record as “Dose-Dependent Effect”.
